Data from patent US7482144B2, “Method for the production of xylitol” (priority 2000, dated 2009).

Tested on: β-xylosidase
Test: Possible inhibiting effect of xylitol on β-xylosidase
Assay type: biochemical
Method: 300 nkat concentrated β-xylosidase was incubated with 0, 1, 5, 10, 50, 100, 200 and 300 g/l of xylitol at 28° C. Samples were taken after 0, 0.5, 1, 2, 4, 6, 8, 24, 48 and 72 hours incubation and stored at −20° C. The activity of β-xylosidase was measured as described in Poutanen and Puls (1988) Appl. Microbiol. Biotechnol. 28:425-432. The activity of β-xylosidase remained stable in all the samples taken and thus it is not inhibited by xylitol.

Inhibition of β-xylosidase activity by xylitol (300 nkat β-xylosidase, 0-300 g/l xylitol, 28° C., 0-72 hours): not inhibited | Inhibition of xylanolytic activity by xylitol (studies conducted so far): has not been shown to inhibit
SMILES: OC[C@@H](O)[C@H](O)[C@@H](O)CO [xylitol]
